# Experimental data published in patent US9550740B2, “Antimicrobial compounds” (Dow Global Technologies LLC, priority 2012, dated 2017).
# How the values were obtained:
# Format in all cases: cell-based
# [1] = tested on: Thermus thermophilus (ATCC 27634); assay: Biocidal efficacy at elevated temperature; conditions: for log kill of treated bacterial populations relative to an untreated control: 50 ppm glutaraldehyde equivalent
# Method: Compound 1 is dissolved in DMSO to yield a 200 mM solution such that the glutaraldehyde-equivalent concentration of the stock solution is 20,000 ppm. The bacterial strain Thermus thermophilus (ATCC 27634) is maintained at 70° C. After 24-48 hours of growth, 10 mL of bacterial culture is harvested by spinning in a Beckman-Coulter benchtop centrifuge at 3000 rpm for 15 min. The cell pellet is resuspended in 100 mL of phosphate-buffered saline (PBS) to give approximately 5×10^5 CFU/mL and aliquoted into 10 mL portions in glass test tubes fitted with screw caps. Samples are equilibrated to 37, 55, or 70° C. for 30 min and then treated with glutaraldehyde or Compound 1 at 50 ppm glutaraldehyde equivalent. The treated samples are returned to their respective equilibration temperatures for 4 h and then enumerated for surviving bacteria. After 24 h, the process is repeated by adding fresh grown bacteria to the samples to re-challenge the biocide. The samples are again enumerated after 4 h. Results are reported in terms of log kill of treated bacterial populations relative to an untreated control at each temperature. For values listed as “>x,” actual kill may have been higher but could not be detected by this assay.
# [2] = tested on: sulfate reducing bacteria (SRB), Desulfovibrio longus; assay: Biocidal efficacy at room temperature, sulfate reducing bacteria (SRB); conditions: for minimum dose needed to achieve 3-log reduction in bacteria levels: SRB, anaerobic PBS, ppm glutaraldehyde equivalent, tested 200 to 12 ppm; for activity against SRB (in words): compared with glutaraldehyde
# Method: (§1) Assay for Biocidal Efficacy at Room Temperature: Glutaraldehyde and Compounds 1 and 4 are tested for biocidal activity against a pool of aerobic organisms at room temperature and against sulfate reducing bacteria (SRB) at room temperature. Tests are performed as follows:
# (§2) a. Stock preparation. Glutaraldehyde (50% in water) and Compounds 1 and 4 are each dissolved in DMSO to a concentration of 200 mM, which is equivalent to 20,000 ppm of free glutaraldehyde.
# (§3) b. Aerobic Bacteria—a mixed pool of 6 bacterial species at approximately 5×10^6 CFU/mL in phosphate buffered saline is distributed into a 96-well plate. Each well receives an independent chemical treatment of the tested compounds at concentrations ranging from 200 ppm to 12 ppm glutaraldehyde. A control treatment of DMSO alone is also included. Each condition is tested in triplicate. After set periods of incubation (1, 4, and 24 h), the number of surviving cells in each well are enumerated by dilution to extinction in a medium containing resazurin dye as an indicator. c. Sulfate Reducing Bacteria (SRB)—SRB testing is performed as for the aerobic bacteria with the following modifications: the species Desulfovibrio longus is tested in anaerobic PBS and the enumeration of surviving cells is performed in a medium containing soluble iron as an indicator. d. Results: Values indicate minimum the dose needed (in ppm) to achieve 3-log reduction in bacteria levels. “n/a” indicates the threshold is not met at any of the tested doses. “N.D.” indicates no data available.
# [3] = tested on: pool of aerobic organisms (mixed pool of 6 bacterial species); assay: Biocidal efficacy at room temperature, aerobic bacteria; conditions: for minimum dose needed to achieve 3-log reduction in bacteria levels: aerobic bacteria, ppm glutaraldehyde equivalent, tested 200 to 12 ppm
# Method: as §1, §2, §3
# [4] = 37 C., 24 hr (re-challenge with fresh bacteria, enumerated after 4 h)
# [5] = 55 C., 24 hr (re-challenge with fresh bacteria, enumerated after 4 h)
# [6] = 70 C., 24 hr (re-challenge with fresh bacteria, enumerated after 4 h)
Structure (SMILES),"log kill of treated bacterial populations relative to an untreated control ([1]; 37 C., 4 hr)","log kill of treated bacterial populations relative to an untreated control [1, 4]","log kill of treated bacterial populations relative to an untreated control ([1]; 55 C., 4 hr)","log kill of treated bacterial populations relative to an untreated control [1, 5]","log kill of treated bacterial populations relative to an untreated control ([1]; 70 C., 4 hr)","log kill of treated bacterial populations relative to an untreated control [1, 6]","activity compared with glutaraldehyde (in words) ([1]; at each temperature tested (37, 55, 70 C.))",minimum dose needed to achieve 3-log reduction in bacteria levels ([2]; 1 hour incubation),minimum dose needed to achieve 3-log reduction in bacteria levels ([2]; 4 hours incubation),activity against SRB (in words) [2],biocidal activity against aerobic bacteria (in words) [3],minimum dose needed to achieve 3-log reduction in bacteria levels ([3]; 1 hour incubation),minimum dose needed to achieve 3-log reduction in bacteria levels ([3]; 4 hours incubation),minimum dose needed to achieve 3-log reduction in bacteria levels ([3]; 24 hours incubation),minimum dose needed to achieve 3-log reduction in bacteria levels ([2]; 24 hours incubation)
"CN1CCC(c2ccccc2)OC1CCCC1OC(c2ccccc2)CCN1C (centres unmarked) [Compound 1, 1,3-bis(3-methyl-6-phenyl-1,3-oxazinan-2-yl)propane]",>3,>4,>3,>3,>4,>4,equivalent activity to glutaraldehyde,133 ppm,133 ppm,some activity,significant biocidal activity,59 ppm,26 ppm,40 ppm,–
"CN1CCOC1CCCC1OCCN1C (centres unmarked) [Compound 4, 1,3-bis(3-methyloxazolidin-2-yl)propane]",–,–,–,–,–,–,–,200 ppm,133 ppm,some activity,limited activity,–,200 ppm,200 ppm,–
"O=CCCCC=O [glut, Glutaraldehyde, reference compound]",>3,>4,>3,>3,>4,>4,–,89 ppm,18 ppm,–,–,26 ppm,26 ppm,26 ppm,<12 ppm
